A short description of data set [1]: Metabolic stability in mouse liver microsomes. The conditions noted are these: CD-1, liver microsomes, pH 7.4, 0.5 mg/mL microsomes, NADPH, 45 minutes, 37° C., read-out: Half-life in liver microsomes (t1/2). Type of data set: in vitro ADME, CD-1 mouse. On the procedure:
(§1) Microsomal stability. Microsomal stability assays were conducted on a Beckmann Biomek FXp laboratory automation system. The liver microsomal incubation mixture consisted of liver microsomes (0.5 mg microsomal protein/mL), the Compound (1 μM), MgCl2 (3 mM), and EDTA (1 mM) in potassium phosphate buffer (100 mM, pH 7.4). Midazolam and Ketanserin were used as the assay control substrates. The reaction was initiated with the addition of an NADPH regeneration solution (1.3 mM NADPH) and maintained at 37° C. with shaking. At five time points ranging from 0 to 45 min, aliquots (50 μL) were removed and quenched with acetonitrile (100 μL) containing an internal standard (imipramine). After vortex and centrifugation, samples were analyzed by LC-MS/MS. Calculation of the in vitro half-lives and clearance followed literature guidelines.
For orientation: Liver microsomes are a subcellular fraction often used to study metabolism.

Data set [2] can be described thus: Metabolic stability in rat liver microsomes. To be noted: Sprague Dawley, pH 7.4, 0.5 mg/mL microsomes, NADPH, 45 minutes, 37° C., read-out: Half-life in liver microsomes (t1/2). Type of data set: in vitro ADME. The protocol:
as §1

A short description of data set [3]: Metabolic stability in human liver microsomes. The class given is in vitro ADME. The conditions noted are these: pH 7.4, 0.5 mg/mL microsomes, NADPH, 45 minutes, 37° C., read-out: Half-life in liver microsomes (t1/2). On the procedure: as §1
Data set [4] can be described thus: In vivo pharmacokinetics after a single dose, mouse. The conditions noted are these: for clearance / half-life / Vd: plasma, Female CD-1 mice, single dose 0.2 or 0.3 mg/kg IV; for Vd: read-out: Vss. The arrangement: species or system Female CD-1 Mice. On the procedure:
IV (intravenous) doses were formulated in 20% DMSO+60% PEG400+20% water. PO (per os) doses were formulated in 0.5% methylcellulose in water.
Mouse: Female mice (CD1 strain, purchased from Shanghai JH Laboratory Animal Co. LTD) weighing 20-30 g were used for studies. Food and water were available to all animals ad libitum. The test article was dosed via tail vein (IV doses) or oral gavage (PO doses), respectively. Blood samples were collected from all animals at predose and at 0.083, 0.25, 0.5, 1, 2, 4, 8, and 24 h postdose into tubes containing the anticoagulant K2EDTA (3 animals per time point with 3 time points collected per animal). Plasma was separated from the blood by centrifugation at 4° C. and stored at −70° C. until analysis. Test article concentrations in plasma were quantified using a liquid chromatography with tandem mass spectrometry (LC-MS/MS) method.

Data set [5] concerns the target T1, GST-CBP (1081-1197) bromodomain (Homo sapiens, UniProt Q92793).
T1 construct: The GST tagged bromodomains of CBP (1081-1197) and BRD4 (49-170) were obtained from BPS Bioscience; purchased BPS Bioscience
Description: CBP AlphaScreen assay. To be noted: binding to biotin-H4 (1-21) Ac-K5/8/12/16. The protocol:
(§2) Specific binding of the CBP or BRD4 bromodomain to the acetylated peptide derived from the H4 histone substrate (tetra acetylated H4 (1-21) Ac—K5/8/12/16) was measured in absence or presence of inhibitors. The GST tagged bromodomains of CBP (1081-1197) and BRD4 (49-170) were obtained from BPS Bioscience and binding to the biotinylated H4 (1-21) Ac—K5/8/12/16 (AnaSpec. 64989) was assessed via AlphaScreen technology (Perkin Elmer).
CBP AlphaScreen assay: 5 nM GST-CBP (1081-1197) and 20 nM biotin-H4 (1-21) Ac—K5/8/12/16 (AnaSpec. 64989) were incubated with varying concentrations of CBP inhibitors in 15 μL of buffer containing 50 mM HEPES 7.5, […], 1 mM TCEP, and 0.003% Tween-20. After 30 minutes incubation at room temperature, 15 μL of detection buffer (BPS Bio. 33006) containing 7 μg/mL of Glutathione AlphaLisa acceptor beads (Perkin Elmer AL109) and 14 μg/mL of Streptavidin donor beads (Perkin Elmer 676002) was then added to the previous mixture. The reaction was incubated for an additional 2 hours at room temperature, and the AlphaScreen signal was quantified using the Envision Multilabel plate reader. As negative control, GST-CBP (1081-1197) was incubated with the non-acetylated biotin-H4 (1-21) peptide (AnaSpec. 62555) and in presence of 0.25% of final DMSO concentration.
(§3) BRD4 AlphaScreen assay: The binding of 2.5 nM of BRD4 (49-170) to 10 nM biotin-H4 (1-21) Ac—K5/8/12/16 (AnaSpec. 64989) was assessed following the same procedure described for the CBP assay. The standard dose response curves were fitted by Genedata Screener software using the variable-slope model: Signal=Signalnegative control+(SignalDMSO control−Signalnegative control)/(1+(IC50/Dose)∧Hill slope).
(§4) Only Signal and Dose in the equation were treated as known values.
In general terms: Alpha assays give light when donor and acceptor beads are brought close together.

Data set [6] deals with T2, BRD4 (49-170) bromodomain (Homo sapiens, UniProt O60885).
T2 construct: The GST tagged bromodomains of CBP (1081-1197) and BRD4 (49-170) were obtained from BPS Bioscience; purchased BPS Bioscience
As to the kind of experiment: BRD4 AlphaScreen assay. To be noted: binding to biotin-H4 (1-21) Ac-K5/8/12/16. On the procedure: as §2, §3, §4

Data set [7] relates to DOHH2 cells. Description: DOHH2 Proliferation Assay. Type of data set: cell-based. The conditions noted are these: Homo sapiens, DOHH-2, 168 h; CellTiter-Glo viability on day 7. The protocol:
DOHH2 Proliferation Assay: On day 1, 1000 DOHH2 cells were seeded to a 384-well TC plate (PerkinElmer #6007680) in 40 μL RPMI 1640 media, followed by the addition of CBP inhibitors except for column 13 where 3.3 μM staurosporine was added as negative control. DMSO was 0.1% in all the wells. The cells were lysed in and counted viability by 40 μL CellTiter-Glo (Promega #G9243) on day 7. The luminescent signal was quantified by Envision Multilabel plate reader and the standard dose response curves were fitted by Genedata Screener software using the variable-slope model: Signal=Signalnegative control+(SignalDMSO control−Signalnegative control)/(1+(IC50/Dose)∧Hill slope).
as §4

T1 sequence (Q92793 1081-1197): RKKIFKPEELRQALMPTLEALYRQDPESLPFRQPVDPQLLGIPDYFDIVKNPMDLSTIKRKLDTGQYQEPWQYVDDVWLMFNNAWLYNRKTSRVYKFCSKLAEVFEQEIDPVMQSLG

As usually defined, the clearance is the rate of elimination divided by the concentration. `CNC(=O)c1ccc(-c2cc3cccc(-c4nc(C5CCOCC5)n5c4CN(C(=O)NC)CC5)c3cn2)cn1` [Compound 8, reference compound]: the half-life at 1 μM in data set [1] worked out at 10.2 h. Besides, in data set [2], the half-life at 1 μM is 9 h. Besides, in data set [3], the half-life at 1 μM was 7.7 h. In data set [4], the clearance is 54.8 mL/min/kg, the half-life was 0.588 h and the Vd was found to be 2 L/kg.

A word on the IC50: it is the concentration needed to halve the response being measured. With `CNC(=O)c1ccc(-c2cc3cccc(-c4nc(C5CCOCC5)n5c4CN(C(C)=O)CC5)c3cn2)cn1` [Compound 3, 5-(8-(7-Acetyl-3-(tetrahydro-2H-pyran-4-yl)-5,6,7,8-tetrahydroimidazo[1,5-α]pyrazin-1-yl)isoquinolin-3-yl)-N-methylpicolinamide], the results for the IC50 in data set [5], in data set [6] and in data set [7] were 16 nM, 15000 nM and 232 nM, respectively. The half-life at 1 μM came out at 8.03 h in data set [1], 5.03 h in data set [2] and 4.82 h in data set [3]. In data set [4] (in words), the “mouse in vivo clearances compared to the structural analogs previously disclosed” value is reported as “dramatic decrease”. In addition, the “mouse in vivo half-lives compared to the structural analogs previously disclosed” value in data set [4] (in words) is “increase”. Further, the clearance in data set [4] was 11.9 mL/min/kg. The same molecule showed a half-life in data set [4] of 2.55 h. For the same molecule, the Vd in data set [4] came to 1.84 L/kg.

Take `CNC(=O)c1ccc(-c2cc3cccc(-c4nc(C56CCC(CC5)OC6)n5c4CN(C(C)=O)CC5)c3cn2)cn1` [Compound 4, 5-(8-(7-acetyl-3-(2-oxabicyclo[2.2.2]octan-4-yl)-5,6,7,8-tetrahydroimidazo[1,5-α]pyrazin-1-yl)isoquinolin-3-yl)-N-methylpicolinamide]: the results for the IC50 in data set [5], in data set [6] and in data set [7] were 22 nM, 17000 nM and 676 nM, respectively.

On to `CNC(=O)c1ccc(-c2cc3cccc(-c4nc(C5CC5)n5c4CN(C(C)=O)CC5)c3cn2)cn1` [Compound 2, 5-(8-(7-Acetyl-3-cyclopropyl-5,6,7,8-tetrahydroimidazo[1,5-α]pyrazin-1-yl)isoquinolin-3-yl)-N-methylpicolinamide], for which the IC50 in data set [5] is 15 nM; in data set [6], 25000 nM; in data set [7] it was 376 nM.

For the molecule `CC(=O)N1CCn2c(C3CCOCC3)nc(-c3c(F)ccc4cc(-c5cnc(C)s5)ncc34)c2C1` [Compound 6, 1-(1-(7-fluoro-3-(2-methylthiazol-5-yl)isoquinolin-8-yl)-3-(tetrahydro-2H-pyran-4-yl)-5,6-dihydroimidazo[1,5-α]pyrazin-7 (8H)-yl)ethan-1-one], the IC50 in data set [5] amounted to 14 nM; in data set [6], 22200 nM; in data set [7], 541 nM.

As to `CNC(=O)c1ccc(-c2cc3ccc(F)c(-c4nc(C5CCOCC5)n5c4CN(C(C)=O)CC5)c3cn2)cn1` [Compound 5, 5-(8-(7-Acetyl-3-(tetrahydro-2H-pyran-4-yl)-5,6,7,8-tetrahydroimidazo[1,5-α]pyrazin-1-yl)-7-fluoroisoquinolin-3-yl)-N-methylpicolinamide], the results for the IC50 in data set [5], in data set [6] and in data set [7] were 34 nM, 20400 nM and 216 nM, respectively.

The record behind these values is patent publication US12559497B2, “Imidazopiperazine inhibitors of transcription activating proteins” (Board of Regents, The University of Texas System, priority 2020, dated 2026).
